Test results reported in PubChem BioAssay AID214 (DTP/NCI, 2004).
Values joined by “and” are separate entries in the source; they are usually repeats but may differ in a detail not shown here. Identical values can stand only once. Results filed as inconclusive are left out.

Test system: B6C3F1 mice, colon carcinoma 38 s.c., T/C
Test: NCI In Vivo Anticancer Drug Screen. Data for tumor model Colon Carcinoma 38 (subcutaneous) in B6C3F1 mice
Settings: vehicle: saline
Experimental: The antitumor activity of compounds was measured in mice bearing transplantable tumors. Survival or tumor size were measured and the results are expressed as the measurement made in the treated group (T) divided by the measurement made in the vehicle treated control group (C). The tumor model used in this assay is Colon Carcinoma 38 (subcutaneous) in B6C3F1 mice

## CCN(CC)CCOC(=O)Cc1cccc2c(=O)cc(-c3ccccc3)oc12
endpoint: median survival time, dose: 3.12 mg/kg/injection, schedule: Q01DX001 (iv), higher = longer survival
  T/C: 101 % of control
endpoint: median survival time, dose: 3.12 mg/kg/injection, schedule: Q07DX002 (iv), higher = longer survival
  T/C: 102 % of control
endpoint: median survival time, dose: 6.25 mg/kg/injection, schedule: Q01DX001 (iv), higher = longer survival
  T/C: 102 % of control
endpoint: median survival time, dose: 6.25 mg/kg/injection, schedule: Q07DX002 (iv), higher = longer survival
  T/C: 106 % of control
endpoint: median survival time, dose: 15.82 mg/kg/injection, schedule: Q07DX002 (iv), higher = longer survival
  T/C: 92 % of control
endpoint: median survival time, dose: 21.09 mg/kg/injection, schedule: Q01DX001 (iv), higher = longer survival
  T/C: 101 % of control
endpoint: median survival time, dose: 21.09 mg/kg/injection, schedule: Q07DX002 (iv), higher = longer survival
  T/C: 96 % of control
endpoint: median survival time, dose: 25.0 mg/kg/injection, schedule: Q07DX002 (iv), higher = longer survival
  T/C: 87 % of control
endpoint: median survival time, dose: 28.13 mg/kg/injection, schedule: Q01DX001 (iv), higher = longer survival
  T/C: 100 % of control
endpoint: median survival time, dose: 28.13 mg/kg/injection, schedule: Q07DX002 (iv), higher = longer survival
  T/C: 121 % of control
endpoint: median survival time, dose: 37.5 mg/kg/injection, schedule: Q01DX001 (iv), higher = longer survival
  T/C: 92 % of control
endpoint: median survival time, dose: 37.5 mg/kg/injection, schedule: Q07DX002 (iv), higher = longer survival
  T/C: 110 % of control
endpoint: median survival time, dose: 50.0 mg/kg/injection, schedule: Q01DX001 (iv), higher = longer survival
  T/C: 96 % of control
endpoint: median survival time, dose: 112.5 mg/kg/injection, schedule: Q01DX001 (ip), higher = longer survival
  T/C: 89 % of control
endpoint: median survival time, dose: 112.5 mg/kg/injection, schedule: Q07DX002 (ip), higher = longer survival
  T/C: 90 % of control and 120 % of control
endpoint: median survival time, dose: 150.0 mg/kg/injection, schedule: Q01DX001 (ip), higher = longer survival
  T/C: 96 % of control and 99 % of control
endpoint: median survival time, dose: 150.0 mg/kg/injection, schedule: Q07DX002 (ip), higher = longer survival
  T/C: 167 % of control and 218 % of control
endpoint: median survival time, dose: 200.0 mg/kg/injection, schedule: Q07DX002 (ip), higher = longer survival
  T/C: 220 % of control and 238 % of control
endpoint: median survival time, dose: 266.7 mg/kg/injection, schedule: Q01DX001 (ip), higher = longer survival
  T/C: 171 % of control and 176 % of control
endpoint: median survival time, dose: 266.7 mg/kg/injection, schedule: Q07DX002 (ip), higher = longer survival
  T/C: 220 % of control and 238 % of control
endpoint: median survival time, dose: 355.6 mg/kg/injection, schedule: Q01DX001 (ip), higher = longer survival
  T/C: 220 % of control and 232 % of control
endpoint: median tumor weight (est.), dose: 21.09 mg/kg/injection, schedule: Q07DX002 (iv), higher = larger tumour
  T/C: 86 % of control
endpoint: median tumor weight (est.), dose: 26.7 mg/kg/injection, schedule: Q03HX024 (ip), higher = larger tumour
  T/C: 115 % of control
endpoint: median tumor weight (est.), dose: 28.13 mg/kg/injection, schedule: Q01DX001 (iv), higher = larger tumour
  T/C: 77 % of control and 89 % of control
endpoint: median tumor weight (est.), dose: 35.6 mg/kg/injection, schedule: Q03HX024 (ip), higher = larger tumour
  T/C: 155 % of control
endpoint: median tumor weight (est.), dose: 35.6 mg/kg/injection, schedule: Q06HX016 (ip), higher = larger tumour
  T/C: 86 % of control
endpoint: median tumor weight (est.), dose: 37.5 mg/kg/injection, schedule: Q01DX001 (iv), higher = larger tumour
  T/C: 107 % of control
endpoint: median tumor weight (est.), dose: 47.5 mg/kg/injection, schedule: Q01DX008 (ip), higher = larger tumour
  T/C: 79 % of control
endpoint: median tumor weight (est.), dose: 47.5 mg/kg/injection, schedule: Q03HX006 (ip), higher = larger tumour
  T/C: 117 % of control
endpoint: median tumor weight (est.), dose: 47.5 mg/kg/injection, schedule: Q03HX024 (ip), higher = larger tumour
  T/C: 83 % of control
endpoint: median tumor weight (est.), dose: 47.5 mg/kg/injection, schedule: Q06HX016 (ip), higher = larger tumour
  T/C: 75 % of control
endpoint: median tumor weight (est.), dose: 50.0 mg/kg/injection, schedule: Q01DX001 (iv), higher = larger tumour
  T/C: 50 % of control
endpoint: median tumor weight (est.), dose: 63.3 mg/kg/injection, schedule: Q03HX006 (ip), higher = larger tumour
  T/C: 63 % of control
endpoint: median tumor weight (est.), dose: 63.3 mg/kg/injection, schedule: Q06HX016 (ip), higher = larger tumour
  T/C: 93 % of control
endpoint: median tumor weight (est.), dose: 84.4 mg/kg/injection, schedule: Q01DX008 (ip), higher = larger tumour
  T/C: 111 % of control
endpoint: median tumor weight (est.), dose: 84.4 mg/kg/injection, schedule: Q03HX006 (ip), higher = larger tumour
  T/C: 63 % of control
endpoint: median tumor weight (est.), dose: 84.4 mg/kg/injection, schedule: Q06HX004 (ip), higher = larger tumour
  T/C: 75 % of control
endpoint: median tumor weight (est.), dose: 84.4 mg/kg/injection, schedule: Q06HX016 (ip), higher = larger tumour
  T/C: 63 % of control
endpoint: median tumor weight (est.), dose: 84.4 mg/kg/injection, schedule: Q07DX002 (ip), higher = larger tumour
  T/C: 60 % of control
endpoint: median tumor weight (est.), dose: 112.5 mg/kg/injection, schedule: Q01DX008 (ip), higher = larger tumour
  T/C: 73 % of control
endpoint: median tumor weight (est.), dose: 112.5 mg/kg/injection, schedule: Q03HX006 (ip), higher = larger tumour
  T/C: 18 % of control
endpoint: median tumor weight (est.), dose: 112.5 mg/kg/injection, schedule: Q06HX004 (ip), higher = larger tumour
  T/C: 60 % of control
endpoint: median tumor weight (est.), dose: 150.0 mg/kg/injection, schedule: Q06HX004 (ip), higher = larger tumour
  T/C: 54 % of control
endpoint: median tumor weight (est.), dose: 200.0 mg/kg/injection, schedule: Q01DX001 (ip), higher = larger tumour
  T/C: 20 % of control and 22 % of control
endpoint: median tumor weight (est.), dose: 200.0 mg/kg/injection, schedule: Q06HX004 (ip), higher = larger tumour
  T/C: 9 % of control
endpoint: median tumor weight (est.), dose: 200.0 mg/kg/injection, schedule: Q07DX002 (ip), higher = larger tumour
  T/C: 4 % of control and 9 % of control
endpoint: median tumor weight (est.), dose: 266.7 mg/kg/injection, schedule: Q01DX001 (ip), higher = larger tumour
  T/C: 7 % of control and 13 % of control
